Patent publication US7115750B1, “Melanin concentrating hormone antagonist” (Takeda Pharmaceutical Company Limited, priority 1999, dated 2006)

Legend:
[1] = target: SLC-1 expressing CHO cell membrane fractions (MCH receptor) (UniProt Q99705); assay: Determination of antagonist activity using GTPgS binding assay; format: biochemical, human and rat (not specified for the table); conditions: [35S]-GTPγS binding stimulated by MCH, SLC-1 expressing CHO cell membrane 20 μg/ml, 1 hour; read-out: Inhibition Activity (IC50 value: nM)
Procedure: Membrane fraction was prepared by the following method, using the human SLC-1 expressing CHO cell clone 57 obtained in Reference Example 1-10, and the rat SLC-1 expressing CHO cell clone 44 obtained in Reference Example 1-4.
The human and rat SLC-1 expressing CHO cells (1×10^8) were scraped in buffer saline phosphate (pH 7.4) to which 5 mM EDTA (ethylenediaminetetraacetic acid) had been added, and centrifuged. 10 ml of homogenized buffer (10 mM NaHCO3, 5 mM EDTA, pH 7.5) was added to the cell pellets, and they were homogenized using a Polytron homogenizer. […]
After this reaction mixture was allowed to react for 1 hour under stirring, it was filtered under vacuum using a glass filter (GF-C), then the filter was washed 3 times with 300 μl of washing solution (50 mM Tris-HCl buffer solution pH 7.5). […] of liquid scintillator was added to the glass filter, and residual radioactivity was determined using a liquid scintillation counter.
The IC50 value of the compound was calculated from the binding inhibition rate (%), based on the definition that the binding inhibition rate (%)=(radioactivity when compound and MCH were added−radioactivity when DMSO solution was added)/(radioactivity when MCH was added−radioactivity when DMSO solution was added)×100.

IC50 [1] | melting point | Structure (SMILES)
– | 247 to 252 °C (dec.) | O=C(NCCN1CCCCC1)c1ccc(NC(=O)c2ccc(-c3ccccc3)cc2)cc1 [compound 22, N-[4-[[2-(Piperidinoethyl)amino]carbonyl]phenyl] 4-biphenylylcarboxamide]
– | 241 to 245 °C (dec.) | O=C(NCCN1CCCC1)c1ccc(NC(=O)c2ccc(-c3ccccc3)cc2)cc1 [compound 23]
– | 164 to 166 °C | CN(C)CC1CCc2cc(NC(=O)c3ccc(-c4ccccc4)cc3)ccc2C1 (stereo not drawn) [compound 24, N-[2-(N,N-Dimethylamino)methyl-6-tetralinyl]-4-biphenylylcarboxamide]

The remaining lines, values behind:

Structure (SMILES) | IC50 [1] | melting point
COc1ccc(-c2ccc(C(=O)Nc3ccc4c(c3)CCC(CN(C)C)C4)cc2)cc1 (stereo not drawn) [Example 1, N-[2-(N,N-Dimethylamino)methyl-6-tetralinyl]-(4′-methoxybiphenyl-4-yl)carboxamide] | 40 nM | –
COc1ccc(C2CCN(C(=O)Nc3ccc4c(c3)CCC(CN3CCN(C)CC3)=C4)CC2)cc1 [Example 242, 4-(4-Methoxyphenyl)-N-[6-[(4-methyl-1-piperazinyl)methyl]-7,8-dihydro-2-naphthalenyl]-1-piperidinecarboxamide] | – | 198 to 200 °C
CN(C)CC1=Cc2ccc(NC(=O)c3ccc(-c4ccc(F)cc4)cc3)cc2C1 [Example 245, N-[2-[(Dimethylamino)methyl]-1H-inden-6-yl]-4′-fluoro[1,1′-biphenyl]-4-carboxamide] | – | 209 to 211 °C
CN(C)CC1=Cc2ccc(NC(=O)c3ccc(-c4ccc(Cl)cc4)cc3)cc2C1 [Example 246, 4′-Chloro-N-[2-[(dimethylamino)methyl]-1H-inden-6-yl][1,1′-biphenyl]-4-carboxamide] | – | 218 to 220 °C
CN(C)CC1CCc2cc(NC(=O)c3ccc(-c4ccccc4)cc3)ccc2C1.Cl (stereo not drawn) [Reference Example 25, N-[2-(N,N-Dimethylamino)methyl-6-tetralinyl]-4-biphenylylcarboxamide hydrochloride] | 90 nM | > 250 °C
